Measurements from ChEMBL document CHEMBL4251622, “Design, synthesis, and biological evaluation of polo-like kinase 1/eukaryotic elongation factor 2 kinase (PLK1/EEF2K) dual inhibitors for regulating breast cancer cells apoptosis and autophagy” (Eur J Med Chem, 2018).
Active and inactive are the calls of the source. The calls are words filed in the database; no cut-off is given here.

Key:
[1] = target: Casein kinase I isoform delta (Homo sapiens) (UniProt P48730); assay: Inhibition of wild-type human full length CSNK1D (M1 to K409 residues) expressed in bacterial expression system assessed as residual activity at 1 uM by Kinomescan method relative to control
[2] = target: Bone morphogenetic protein receptor type-2 (Homo sapiens) (UniProt Q13873); assay: Inhibition of wild-type human partial length BMPR2 (R179 to Q526 residues) expressed in mammalian expression system assessed as residual activity at 1 uM by Kinomescan method relative to control
[3] = system: Epidermal growth factor receptor (Homo sapiens), P00533 [L858R]; assay: Inhibition of human partial length EGFR L858R mutant (R669 to V1011 residues) expressed in bacterial expression system assessed as residual activity at 1 uM by Kinomescan method relative to control
[4] = target: Activin receptor type-1B (Homo sapiens) (UniProt P36896); assay: Inhibition of wild-type human ACVR1B (S187 to I505 residues) expressed in bacterial expression system assessed as residual activity at 1 uM by Kinomescan method relative to control
[5] = target: Tyrosine-protein kinase ZAP-70 (Homo sapiens) (UniProt P43403); assay: Inhibition of wild-type human partial length ZAP70 (D20 to G299 residues) expressed in mammalian expression system assessed as residual activity at 1 uM by Kinomescan method relative to control
[6] = target: Phosphatidylinositol 4,5-bisphosphate 3-kinase catalytic subunit gamma isoform (Homo sapiens) (UniProt P48736); assay: Inhibition of wild-type human partial length PIK3CG (S144 to A1102 residues) expressed in mammalian expression system assessed as residual activity at 1 uM by Kinomescan method relative to control
BT-483 [7] = assay: Induction of autophagy in human BT-483 cells transfected with GFP-fused LC3 assessed as aggregation of GFP-LC3 punctures after 6 hrs by DAPI staining based assay; format: functional, cell-based
[8] = target: Tyrosine-protein kinase ABL1 (Homo sapiens) (UniProt P00519); assay: Inhibition of wild-type human phosphorylated ABL1 (S229 to K512 residues) expressed in mammalian expression system assessed as residual activity at 1 uM by Kinomescan method relative to control
[9] = target: Death-associated protein kinase 1 (Homo sapiens) (UniProt P53355); assay: Inhibition of wild-type human partial length DAPK1 (M1 to F296 residues) expressed in bacterial expression system assessed as residual activity at 1 uM by Kinomescan method relative to control
[10] = target: Tyrosine-protein kinase receptor UFO (Homo sapiens) (UniProt P30530); assay: Inhibition of wild-type human partial length AXL (R497 to Y821 residues) expressed in bacterial expression system assessed as residual activity at 1 uM by Kinomescan method relative to control
[11] = target: Receptor tyrosine-protein kinase erbB-2 (Homo sapiens) (UniProt P04626); assay: Inhibition of wild-type human partial length ERBB2 (K646 to V1225 residues) expressed in mammalian expression system assessed as residual activity at 1 uM by Kinomescan method relative to control
[12] = target: Cyclin-dependent kinase 9 (Homo sapiens) (UniProt P50750); assay: Inhibition of wild-type human full length CDK9 (M1 to F372 residues) expressed in bacterial expression system assessed as residual activity at 1 uM by Kinomescan method relative to control
[13] = target: RAC-alpha serine/threonine-protein kinase (Homo sapiens) (UniProt P31749); assay: Inhibition of wild-type human partial length AKT1 expressed in bacterial expression system assessed as residual activity at 1 uM by Kinomescan method relative to control
[14] = target: Serine/threonine-protein kinase DCLK1 (Homo sapiens) (UniProt O15075); assay: Inhibition of wild-type human partial length DCAMKL1 (L270 to A662 residues) expressed in mammalian expression system assessed as residual activity at 1 uM by Kinomescan method relative to control
[15] = target: Platelet-derived growth factor receptor beta (Homo sapiens) (UniProt P09619); assay: Inhibition of wild-type human partial length PDGFRB (V582 to Y1009 residues) expressed in bacterial expression system assessed as residual activity at 1 uM by Kinomescan method relative to control
BT-483 [16] = assay: Effect on caspase-8 protein expression in human BT-483 cells at 5 to 10 uM by Western blot analysis; format: functional, cell-based
[17] = target: Insulin receptor (Homo sapiens) (UniProt P06213); assay: Inhibition of wild-type human partial length INSR (P997 to E1318 residues) expressed in mammalian expression system assessed as residual activity at 1 uM by Kinomescan method relative to control
[18] = target: Serine/threonine-protein kinase PLK1 (Homo sapiens, UniProt P53350); assay: Inhibition of full length human PLK1 using casein as substrate after 40 mins in presence of [gamma-33P]-ATP by radiometric assay
[19] = target: Cyclin-dependent kinase 7 (Homo sapiens) (UniProt P50613); assay: Inhibition of wild-type human full length CDK7 (M1 to L344 residues) expressed in mammalian expression system assessed as residual activity at 1 uM by Kinomescan method relative to control
MDA-MB-231 = assay: Cytotoxicity against human MDA-MB-231 cells after 24 hrs by MTT assay; format: functional, cell-based
[20] = target: Mitogen-activated protein kinase kinase kinase 4 (Homo sapiens) (UniProt Q9Y6R4); assay: Inhibition of wild-type human partial length MAP3K4 (G1319 to E1608 residues) expressed in bacterial expression system assessed as residual activity at 1 uM by Kinomescan method relative to control
[21] = target: Platelet-derived growth factor receptor alpha (Homo sapiens) (UniProt P16234); assay: Inhibition of wild-type human partial length PDGFRA (V575 to D1002 residues) expressed in mammalian expression system assessed as residual activity at 1 uM by Kinomescan method relative to control
[22] = target: MAP kinase-interacting serine/threonine-protein kinase 2 (Homo sapiens) (UniProt Q9HBH9); assay: Inhibition of wild-type human partial length MKNK2 (G63 to S388 residues) expressed in mammalian expression system assessed as residual activity at 1 uM by Kinomescan method relative to control
[23] = target: Glycogen synthase kinase-3 beta (Homo sapiens) (UniProt P49841); assay: Inhibition of wild-type human full length GSK3B (M1 to T433 residues) expressed in mammalian expression system assessed as residual activity at 1 uM by Kinomescan method relative to control
[24] = target: Insulin-like growth factor 1 receptor (Homo sapiens) (UniProt P08069); assay: Inhibition of wild-type human partial length IGF1R (L972 to D1294 residues) expressed in bacterial expression system assessed as residual activity at 1 uM by Kinomescan method relative to control
[25] = target: MAP kinase-interacting serine/threonine-protein kinase 1 (Homo sapiens) (UniProt Q9BUB5); assay: Inhibition of wild-type human full length MKNK1 (M1 to L424 residues) expressed in mammalian expression system assessed as residual activity at 1 uM by Kinomescan method relative to control
[26] = target: RAC-beta serine/threonine-protein kinase (Homo sapiens) (UniProt P31751); assay: Inhibition of wild-type human partial length AKT2 expressed in bacterial expression system assessed as residual activity at 1 uM by Kinomescan method relative to control

MAP kinase-interacting serine/threonine-protein kinase 2 (Homo sapiens), sequence (Q9HBH9 whole entry, looked up, the tested form may be a part): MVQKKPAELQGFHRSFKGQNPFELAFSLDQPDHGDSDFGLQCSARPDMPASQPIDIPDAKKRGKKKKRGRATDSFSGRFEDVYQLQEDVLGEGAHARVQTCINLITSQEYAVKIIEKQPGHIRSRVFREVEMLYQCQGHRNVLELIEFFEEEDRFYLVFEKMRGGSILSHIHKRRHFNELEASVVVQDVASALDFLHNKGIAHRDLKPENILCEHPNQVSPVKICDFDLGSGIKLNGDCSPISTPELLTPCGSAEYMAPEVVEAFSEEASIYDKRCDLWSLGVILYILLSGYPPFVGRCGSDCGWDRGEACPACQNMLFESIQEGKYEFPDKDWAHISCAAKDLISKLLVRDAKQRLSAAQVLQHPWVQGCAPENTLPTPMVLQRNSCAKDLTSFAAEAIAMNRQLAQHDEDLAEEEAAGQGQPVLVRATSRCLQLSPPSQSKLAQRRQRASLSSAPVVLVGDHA
Glycogen synthase kinase-3 beta (Homo sapiens), sequence (P49841 whole entry, looked up, the tested form may be a part): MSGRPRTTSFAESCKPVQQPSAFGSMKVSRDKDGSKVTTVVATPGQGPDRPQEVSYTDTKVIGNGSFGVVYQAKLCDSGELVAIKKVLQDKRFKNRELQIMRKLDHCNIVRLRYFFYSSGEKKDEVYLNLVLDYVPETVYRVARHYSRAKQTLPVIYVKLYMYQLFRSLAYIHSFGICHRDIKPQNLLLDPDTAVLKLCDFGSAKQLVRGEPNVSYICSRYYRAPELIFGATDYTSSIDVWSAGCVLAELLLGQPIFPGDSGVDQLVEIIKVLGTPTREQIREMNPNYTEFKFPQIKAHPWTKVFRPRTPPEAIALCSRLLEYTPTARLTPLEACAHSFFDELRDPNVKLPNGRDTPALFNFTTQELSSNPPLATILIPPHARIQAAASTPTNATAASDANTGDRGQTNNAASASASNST
Platelet-derived growth factor receptor alpha (Homo sapiens), sequence (P16234 whole entry, the tested form may be a part): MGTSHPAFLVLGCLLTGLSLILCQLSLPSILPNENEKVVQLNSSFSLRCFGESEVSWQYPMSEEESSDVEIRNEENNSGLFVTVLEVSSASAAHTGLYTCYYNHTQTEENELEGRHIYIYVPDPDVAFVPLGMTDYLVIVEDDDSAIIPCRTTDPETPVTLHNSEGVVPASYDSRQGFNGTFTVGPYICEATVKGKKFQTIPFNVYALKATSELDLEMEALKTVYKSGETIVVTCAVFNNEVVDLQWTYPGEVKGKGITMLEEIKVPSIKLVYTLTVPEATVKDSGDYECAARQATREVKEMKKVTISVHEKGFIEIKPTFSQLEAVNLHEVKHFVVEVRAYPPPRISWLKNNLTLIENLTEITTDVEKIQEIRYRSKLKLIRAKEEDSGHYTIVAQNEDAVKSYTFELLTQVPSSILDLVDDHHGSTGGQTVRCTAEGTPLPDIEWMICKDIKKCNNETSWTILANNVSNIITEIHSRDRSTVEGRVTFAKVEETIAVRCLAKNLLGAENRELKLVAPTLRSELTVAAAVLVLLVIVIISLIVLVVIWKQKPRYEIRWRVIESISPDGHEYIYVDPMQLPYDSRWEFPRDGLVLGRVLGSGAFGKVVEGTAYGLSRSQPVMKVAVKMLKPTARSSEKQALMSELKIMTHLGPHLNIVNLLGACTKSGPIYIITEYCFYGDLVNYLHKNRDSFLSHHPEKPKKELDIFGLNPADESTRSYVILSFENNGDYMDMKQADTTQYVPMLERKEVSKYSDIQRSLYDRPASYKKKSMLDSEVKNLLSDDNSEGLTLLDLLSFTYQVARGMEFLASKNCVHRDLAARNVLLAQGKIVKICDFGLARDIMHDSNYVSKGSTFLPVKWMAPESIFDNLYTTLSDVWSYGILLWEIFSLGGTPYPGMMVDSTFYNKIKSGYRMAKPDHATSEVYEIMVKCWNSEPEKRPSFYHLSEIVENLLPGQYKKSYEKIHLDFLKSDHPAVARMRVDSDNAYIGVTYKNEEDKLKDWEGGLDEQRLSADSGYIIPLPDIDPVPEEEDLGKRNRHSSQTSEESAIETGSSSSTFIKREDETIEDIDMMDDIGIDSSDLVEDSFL
Casein kinase I isoform delta (Homo sapiens), sequence (P48730 whole entry, looked up, the tested form may be a part, canonical isoform): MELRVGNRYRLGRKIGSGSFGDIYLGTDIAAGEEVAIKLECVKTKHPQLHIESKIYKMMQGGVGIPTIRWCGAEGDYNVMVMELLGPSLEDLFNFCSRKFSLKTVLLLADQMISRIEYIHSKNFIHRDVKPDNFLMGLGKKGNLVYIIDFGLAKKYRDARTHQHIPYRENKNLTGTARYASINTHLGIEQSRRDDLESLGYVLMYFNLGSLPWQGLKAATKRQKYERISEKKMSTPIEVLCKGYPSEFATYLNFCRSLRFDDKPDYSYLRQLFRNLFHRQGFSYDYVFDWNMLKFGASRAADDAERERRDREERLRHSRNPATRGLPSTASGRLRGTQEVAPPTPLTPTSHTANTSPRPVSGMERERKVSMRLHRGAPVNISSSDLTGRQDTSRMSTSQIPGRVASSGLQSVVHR
RAC-alpha serine/threonine-protein kinase (Homo sapiens), sequence (P31749 whole entry, the tested form may be a part): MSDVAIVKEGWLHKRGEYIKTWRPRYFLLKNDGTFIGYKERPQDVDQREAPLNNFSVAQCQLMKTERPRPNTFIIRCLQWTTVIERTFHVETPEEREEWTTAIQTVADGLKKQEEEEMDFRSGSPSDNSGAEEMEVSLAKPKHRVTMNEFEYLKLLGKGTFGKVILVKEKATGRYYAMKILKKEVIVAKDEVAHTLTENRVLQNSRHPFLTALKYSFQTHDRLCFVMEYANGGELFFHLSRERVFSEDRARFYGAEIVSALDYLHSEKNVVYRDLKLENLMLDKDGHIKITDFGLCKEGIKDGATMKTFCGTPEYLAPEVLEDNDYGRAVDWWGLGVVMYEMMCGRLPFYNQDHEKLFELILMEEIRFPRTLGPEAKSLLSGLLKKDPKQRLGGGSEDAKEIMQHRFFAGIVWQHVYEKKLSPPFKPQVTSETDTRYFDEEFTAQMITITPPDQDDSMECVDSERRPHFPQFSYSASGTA
Cyclin-dependent kinase 7 (Homo sapiens), sequence (P50613 whole entry, the tested form may be a part): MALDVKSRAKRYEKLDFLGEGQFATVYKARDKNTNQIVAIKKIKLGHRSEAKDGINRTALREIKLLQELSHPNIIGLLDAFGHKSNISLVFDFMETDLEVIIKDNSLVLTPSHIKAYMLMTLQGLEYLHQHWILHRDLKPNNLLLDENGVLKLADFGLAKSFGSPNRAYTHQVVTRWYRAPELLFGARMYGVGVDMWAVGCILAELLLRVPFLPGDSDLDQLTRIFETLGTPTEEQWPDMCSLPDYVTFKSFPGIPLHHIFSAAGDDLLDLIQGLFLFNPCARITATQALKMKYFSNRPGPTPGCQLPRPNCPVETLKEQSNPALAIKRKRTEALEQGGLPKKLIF
Serine/threonine-protein kinase PLK1, sequence (P53350 whole entry, the tested form may be a part): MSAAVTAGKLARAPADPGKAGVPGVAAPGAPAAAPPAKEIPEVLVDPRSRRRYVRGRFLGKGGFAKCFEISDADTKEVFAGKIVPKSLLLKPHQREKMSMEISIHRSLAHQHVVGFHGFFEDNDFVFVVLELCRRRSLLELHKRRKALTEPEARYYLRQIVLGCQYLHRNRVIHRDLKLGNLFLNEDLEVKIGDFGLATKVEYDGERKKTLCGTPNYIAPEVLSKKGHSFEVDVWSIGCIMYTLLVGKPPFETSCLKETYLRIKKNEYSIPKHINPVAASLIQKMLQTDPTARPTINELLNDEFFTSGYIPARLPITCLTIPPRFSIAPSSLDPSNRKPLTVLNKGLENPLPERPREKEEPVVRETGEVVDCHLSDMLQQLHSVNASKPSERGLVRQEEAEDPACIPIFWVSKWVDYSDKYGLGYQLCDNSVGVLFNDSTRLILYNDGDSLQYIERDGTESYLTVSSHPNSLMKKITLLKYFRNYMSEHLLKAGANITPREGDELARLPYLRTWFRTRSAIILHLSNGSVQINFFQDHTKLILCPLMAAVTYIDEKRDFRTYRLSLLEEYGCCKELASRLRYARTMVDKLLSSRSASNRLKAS
Phosphatidylinositol 4,5-bisphosphate 3-kinase catalytic subunit gamma isoform (Homo sapiens), sequence (P48736 whole entry, looked up, the tested form may be a part, canonical isoform): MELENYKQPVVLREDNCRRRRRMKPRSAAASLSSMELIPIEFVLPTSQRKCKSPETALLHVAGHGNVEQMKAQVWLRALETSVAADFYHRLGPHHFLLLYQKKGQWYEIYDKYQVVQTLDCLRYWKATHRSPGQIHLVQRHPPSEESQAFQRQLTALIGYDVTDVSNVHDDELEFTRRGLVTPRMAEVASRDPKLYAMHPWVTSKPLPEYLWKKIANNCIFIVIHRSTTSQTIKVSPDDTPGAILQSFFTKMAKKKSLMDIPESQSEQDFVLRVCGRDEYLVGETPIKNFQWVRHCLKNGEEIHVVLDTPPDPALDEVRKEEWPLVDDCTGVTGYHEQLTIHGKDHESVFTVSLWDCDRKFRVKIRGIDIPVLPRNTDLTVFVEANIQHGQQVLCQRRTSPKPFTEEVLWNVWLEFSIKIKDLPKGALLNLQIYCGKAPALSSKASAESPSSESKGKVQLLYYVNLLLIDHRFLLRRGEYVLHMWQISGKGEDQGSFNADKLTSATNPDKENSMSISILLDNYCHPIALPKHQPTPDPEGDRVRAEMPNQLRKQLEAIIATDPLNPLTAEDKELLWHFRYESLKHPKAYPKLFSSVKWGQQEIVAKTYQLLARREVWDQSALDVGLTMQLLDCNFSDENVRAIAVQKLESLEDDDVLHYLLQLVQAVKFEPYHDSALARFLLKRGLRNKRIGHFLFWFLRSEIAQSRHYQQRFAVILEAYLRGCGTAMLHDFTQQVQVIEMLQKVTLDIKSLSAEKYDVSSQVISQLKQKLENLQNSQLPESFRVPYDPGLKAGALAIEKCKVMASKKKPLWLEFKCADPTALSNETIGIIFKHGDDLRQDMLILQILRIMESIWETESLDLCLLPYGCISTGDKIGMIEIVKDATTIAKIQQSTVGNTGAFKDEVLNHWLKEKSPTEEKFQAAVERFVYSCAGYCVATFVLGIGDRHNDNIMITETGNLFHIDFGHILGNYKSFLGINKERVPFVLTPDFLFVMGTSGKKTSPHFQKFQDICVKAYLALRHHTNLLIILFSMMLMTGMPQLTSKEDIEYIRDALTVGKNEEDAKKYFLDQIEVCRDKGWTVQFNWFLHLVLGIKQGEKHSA

`CCNc1cc(-c2ccc(NC(=O)Nc3cccc(Cl)c3)cc2C(F)(F)F)ccn1` was tested, and the Activity [1] was 86%, the Activity [2] was 94% and the Activity [3] was 99%. The Activity [4] was 85%, the Activity [5] was 71% and the Activity [6] was 74%. The Activity (BT-483 [7]) was “Active”, the Activity [8] was 83% and the Activity [9] was 93%. It also gave an Activity [10] of 99%, an Activity [11] of 98% and an Activity [12] of 91%. It also gave an Activity [13] of 90%, an Activity [14] of 98% and an Activity [15] of 83%. For the same compound, the Activity (BT-483 [16]) was “inactive”, the Activity [17] was 87% and the IC50 [18] was 85 nM. The Activity [19] was 85%, the Activity (MDA-MB-231) was “Active” and the Activity [20] was 85%. For the same compound, the Activity [21] was 79%, the Activity [22] was 73% and the Activity [23] was 80%. For the same compound, the Activity [24] was 78%, the Activity [25] was 81% and the Activity [26] was 80%.
